Measurements from patent publication US20130296358A1, “3-SPIROCYCLIC PIPERIDINE DERIVATIVES AS GHRELIN RECEPTOR AGONISTS” (priority 2012, published 2013).

Experiments:
rat fundus = assay: Rat fundus contractility assay (EFS-induced contraction of muscle strips); details: for EC50: increase of EFS-induced contraction, mean of preparations from at least 3 animals; for Emax: relative to the response to ghrelin (100 nM), defined as 100%
Experimental: Male Sprague Dawley rats (180-250 g) were culled by cervical dislocation and the fundus was removed. Each fundus was placed on a Krebs Henseleit (KH) buffer soaked dissection dish and cut along the long curvature to form a flattened sheet that was pinned in each corner. Four adjacent longitudinal strips (10×3 mm) were cut and the mucosa removed by sharp dissection. Each muscle strip was mounted in a 10 ml organ bath containing oxygenated KH at 37° C. Each strip was connected to an isometric force transducer, calibrated initially using a 5 g weight. The signal (g tension) was amplified and responses recorded by a Powerlab data capture system, connected to a computer running Labchart software (version 5.0). Tissues were placed under 1 g tension for an equilibration period of 30 min or until the baseline tension had stabilised. Carbachol (CCh, 100 nM) was then administered to establish the maximum contractile response of each preparation. Tissues were washed thoroughly and left for 30 min to re-equilibrate. Next, the muscle strips underwent electrical field stimulation (EFS). Maximal EFS pulse trains of 12V, 5 Hz, 0.1 msec pulse width, for 2 sec every 60 sec were applied until consistent electrically-stimulated phasic contractions were recorded. The voltage was then reduced in 1V increments until a consistent submaximal (EC50-75) EFS response was observed. Ghrelin (100 nM) was administered and left until a maximum response was obtained. Tissues were then washed thoroughly and left for 30 min. Once the EFS-induced contraction had re-stabilised, cumulative additions (10 nM-10 μM) of each test compound were administered. Individual responses were calculated by determining the peak of the EFS-induced contraction minus the baseline. […] The mean EC50 value for compounds was generated from data obtained on stomach preparations from at least 3 different animals.

[1] = target: T1, human recombinant ghrelin receptor (GHS-R1a) (Homo sapiens, UniProt Q92847); assay: cAMP assay (HTRF), CHO-hGHS-R1a cells; format: cell-based; details: relative to the ghrelin response (defined as 100%)
T1 construct: host or cells: CHO-K1
T1 sequence (Q92847 whole entry): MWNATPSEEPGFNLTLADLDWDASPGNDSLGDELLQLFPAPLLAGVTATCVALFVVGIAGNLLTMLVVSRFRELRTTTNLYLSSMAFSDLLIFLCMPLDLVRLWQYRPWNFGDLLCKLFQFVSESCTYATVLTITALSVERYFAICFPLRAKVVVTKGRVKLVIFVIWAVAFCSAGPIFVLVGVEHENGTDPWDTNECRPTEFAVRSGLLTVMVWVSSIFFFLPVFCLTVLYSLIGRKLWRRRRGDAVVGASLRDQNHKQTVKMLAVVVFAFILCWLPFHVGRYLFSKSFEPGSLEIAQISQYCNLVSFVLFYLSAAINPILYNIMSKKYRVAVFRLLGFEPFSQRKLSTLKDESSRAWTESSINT
Experimental: (§1) Chinese hamster ovary (CHO-K1) cells expressing human recombinant ghrelin receptor (GHS-R1a) were purchased from Euroscreen (ES-410-C) and propagated in UltraCHO medium containing glutamine and supplemented with 1% heat inactivated foetal calf serum (FCS), 100 U/ml penicillin, 100 mg/l streptomycin and 0.8 g/l geneticin. Cells were sub-cultured twice a week with a 1:10 dilution. For passaging, cells were washed with 1× DPBS without calcium and magnesium, trypsinised for 10 min with 0.05% Trypsin/EDTA and resuspended in cell culture medium.
The Homogeneous Time-Resolved Fluorescence (HTRF) cAMP dynamic 2 kit (Cisbio International, France) was used as follows. CHO-hGHS—R1a or CHO-rGHS—R1a cells were seeded in a volume of 25 μl culture media at 10,000 cells/well (400,000 cells/ml) in Greiner white 384-well high volume plates and incubated overnight (18-24 h) at 37° C./5% CO2. Then, media was removed and 6 μl assay buffer [HBSS, 10 mM Hepes, 0.2% (w/v) BSA, 1.7 mM IBMX, (pH7.4)] were added to the wells. To generate a dose response up to 30 μM, 10 mM compound stocks in 100% (v/v) DMSO were firstly diluted in 50% (v/v) DMSO followed by a further dilution into assay buffer. Then, 4 μl of 2.5× compound (dose response as 9 point log serial dilution in assay buffer from 30 μM as maximum concentration) were added to each well achieving a final DMSO assay concentration of 0.8% (v/v). 0.1 μM forskolin was added as positive control. After 30 min (rGHS—R1a cell line) or 60 min (hGHS—R1a cell line) incubation at 37° C./5% CO2, 5 μl of cAMP-d2 and 5 μl of anti-cAMP antibody-cryptate, (both made in lysis buffer), were added to the plate followed by 1 h incubation at RT. During this time, cAMP produced by the cells competed with cAMP-d2 for the anti-cAMP antibody-cryptate molecule. Then, the plate was read on the Pherastar instrument (BMG, Germany) at two different emission wavelengths ([…]). Increasing levels of endogenous cAMP produced by cells could be followed by a decrease of FRET fluorescent signal and viceversa. Values represented by a change in arbitrary fluorescence ratios (665/620) were converted into cAMP concentrations by using a standard curve, the reagents for which were supplied with the kit. EC50 values of agonists were calculated using the nonlinear logistic function of the Prism 5 software (GraphPad, USA). Emax were expressed as relative values of the ghrelin response, which was defined as 100%.

[2] = target: T1, human recombinant ghrelin receptor (GHS-R1a); assay: Calcium assay, CHO-K1 cells expressing hGHS-R1a (Fluo-4); format: cell-based; details: CHO-K1, relative to the Emax induced by MK-0677 (defined as 100%); read-out: hGHS-R1a Ca assay Emax/%
Experimental: as §1
Cells were diluted to achieve 1×10^6 cells/ml, seeded in 384-well black clear bottom CellBind plates at 25000 cells/well (25u1) and incubated overnight at 37° C./5% CO2 Cells were expected to be 85-90% confluent on the day of assay (checked under the microscope) to ensure a high quality assay. Media was manually removed and 40 μl of loading solution containing probenecid and Fluo-4 no wash dye (a calcium indicator, Invitrogen F36206) were added to each well. After 30 min at 37° C. followed by another 30 min at RT, cpds were added to the wells. To generate a dose response up to 30 μM, 10 mM compound stocks in 100% (v/v) DMSO were firstly diluted in 50% (v/v) DMSO. Then, serial dilutions aimed at a full logarithmic dose responses (8 point) were performed in assay buffer [1×HBSS, 20 mM Hepes, 0.1% (w/v) BSA] to give 2.5% (v/v) DMSO and 5× final compound concentrations. The final assay DMSO concentration was 0.5% (v/v). After loading the cells with Fluo-4 containing solution, plates were read on a CeIlLux instrument (Perkin Elmer). A protocol set up to add 10 μl of 5× compound and to read the plate for 60sec after adding the compound at 17th sec was used. Fluorescence excitation took place at 494 nm and emission at 516 nm. EC50 values of agonists were calculated by fitting the percent stimulation over background [(Max-Min)/Min] using the nonlinear logistic function of the Prism 5 software (GraphPad, USA).

[3] = Aqueous solubility of crystalline L-malate salt forms versus free base; format: physicochemical; details: compared to the free base amorphous form

Row | SMILES | EC50 (rat fundus; Rattus norvegicus) | Emax [1] | Emax [2] | EC50 (rat fundus) | aqueous solubility [3] | Emax (rat fundus; Rattus norvegicus)
1 | CN1C(=O)C2(CCCN(C(=O)[C@@H](COCc3ccccc3)NC(=O)C(C)(C)N)C2)C1c1ccccc1 (single isomer, unassigned) [Example 2.0(ii)] | – | 193% | 99% | 17 nM | – | 63%
2 | CN1C[C@@H](c2ccccc2)[C@@]2(CCCN(C(=O)[C@@H](COCc3ccccc3)NC(=O)C(C)(C)N)C2)C1=O.O=C(O)C[C@H](O)C(=O)O [2-Amino-N—[(R)-1-benzyloxymethyl-2-((4S,5R)-2-methyl-1-oxo-4-phenyl-2,7-diaza-spiro[4.5]dec-7-yl)-2-oxo-ethyl]-2-methyl-propionamide L-malate salt] | – | – | – | – | increased aqueous solubility | –
3 | Cc1ccc(C2CN(C)C(=O)C23CCCN(C(=O)[C@@H](COCc2ccccc2)NC(=O)C(C)(C)N)C3)cc1.O=C(O)C[C@H](O)C(=O)O (stereo partly drawn) [2-amino-N-((2R)-3-(benzyloxy)-1-(2-methyl-1-oxo-4-p-tolyl-2,7-diazaspiro[4.5]decan-7-yl)-1-oxopropan-2-yl)-2-methylpropanamide L-malate salt] | – | – | – | – | increased aqueous solubility | –
4 | CN1C[C@@H](c2ccc(F)cc2)[C@@]2(CCCN(C(=O)[C@@H](COCc3ccccc3)NC(=O)C(C)(C)N)C2)C1=O.O=C(O)C[C@H](O)C(=O)O [2-amino-N-((2R)-3-(benzyloxy)-1-((4S,5R)-4-(4-fluorophenyl)-2-methyl-1-oxo-2,7-diazaspiro[4.5]decan-7-yl)-1-oxopropan-2-yl)-2-methylpropanamide L-malate salt] | – | – | – | – | increased aqueous solubility | –

Now from value to molecule, other results behind:

Row | EC50 (rat fundus; Rattus norvegicus) | Emax [1] | Emax [2] | EC50 (rat fundus) | aqueous solubility [3] | SMILES | Emax (rat fundus; Rattus norvegicus)
5 | 68 nM | 168% | 107% | – | – | C[C@H](OCc1ccccc1)[C@@H](NC(=O)C(C)(C)N)C(=O)N1CCCC2(C1)C(=O)N(C)CC2c1ccccc1 (single isomer, unassigned) [Example 1.34] | 115%
6 | 59 nM | 164% | 86% | – | – | CC(C)(C)CN1CC(c2ccccc2)C2(CCCN(C(=O)[C@@H](COCc3ccccc3)NC(=O)C(C)(C)N)C2)C1=O (single isomer, unassigned) [Example 1.40] | 117%
7 | 7.5 nM | 197% | 89% | – | – | CN1C[C@@H](c2ccc(F)cc2)[C@@]2(CCCN(C(=O)[C@@H](COCc3ccccc3)NC(=O)C(C)(C)N)C2)C1=O [Example 1.2, 2-Amino-N-((2R)-3-(benzyloxy)-1-((4S,5R)-4-(4-fluorophenyl)-2-methyl-1-oxo-2,7-diazaspiro[4.5]decan-7-yl)-1-oxopropan-2-yl)-2-methylpropanamide] | 100%
